According to patent US20250230148A1, “CRYSTAL OF FUSED TRICYCLIC DERIVATIVE OR PHARMACEUTICALLY ACCEPTABLE SALT THEREOF” (CHIA TAI TIANQING PHARMACEUTICAL GROUP CO., LTD., priority 2022, published 2025):

Experiments:
M2 receptor = M2 receptor (Homo sapiens (Human), UniProt P08172); assay: M2 receptor affinity test (3H-NMS competition); format: binding; details: M2 receptor membrane protein, 0.2 nM 3H-NMS
Procedure: M2 receptor is a G protein-coupled receptor. In this experiment, the activity of test compound against the M2 receptor in vitro was assayed by the competition of radioisotope labeled NMS and non-isotope labeled test compound for an M2 binding site.
The M2 receptor membrane protein was prepared at 100 μg/mL by Biology Department of WuXi AppTec, and compound was serially diluted in a 2.5-fold gradient in DMSO to obtain 10 concentrations. Radioisotope 3H-NMS was prepared at 0.2 nM in an assay buffer (10 mM HEPES, 1 mM MgCl2, pH 7.40). In formal testing, the experimental system comprising 1 μL of the test compound, 100 μL of M2 receptor membrane protein and 100 μL of radioisotope was shaken in a shaker at 300 RPM for 2 h at room temperature. A GF/C plate (Perkin Elmer, Cat No. 6055690) was prefoamed with 0.3% PEI, and the membrane proteins in the reaction solution were collected by filtration onto the GF/C plate. The signal values were read by a Perkin Elmer Microbeta2 instrument and the inhibition rate for each concentration point was shown as a percentage.

[1] = Crystal stability under 94% RH, XRPD after placement; format: physicochemical; details: 94% RH at room temperature for 1 to 2 weeks
Procedure: • Instrument model: X' Pert3. • Method: taking a sample of about 10 to 20 mg for XRPD analysis. • Detailed XRPD parameters are as follows: • X-ray source: Cu, kα (Kα1=1.540598 Δ, Kα2=1.544426 Δ, Kα2/Kα1 intensity ratio: 0.5) • Tube voltage: 45 kV, tube current: 40 mA • Divergence slit: fixed ⅛° • First seller slit: 0.04 rad, Second soller slit: 0.04 rad • Receiving slit: none, Anti-scatter slit: 7.5 mm • Measurement time: 5 min • scan range: 3 to 40° • Step width angle: 0.0263° • Step length: 46.665 seconds • Rotation speed of sample plate: 60 rpm
The crystal form E of the compound of formula (I) was placed under 94% RH at room temperature for 1 to 2 weeks and then subjected to XRPD testing to evaluate its solid stability in the high humidity environment.

[2] = Dynamic vapor sorption (DVS) test; format: physicochemical
Procedure: • Instrument model: SMS DVS Advantage Dynamic Vapor Sorption Analyzer • Test conditions: Taking a sample (10 to 15 mg) and placing in a DVS sample dish for testing. • Detailed DVS parameters are as follows: • Temperature: 25° C. • Equilibration: dm/dt=0.01%/min (Minimum: 10 min, Maximum: 180 min) • Drying: drying 120 min under 0% RH • RH (%) test gradient: 10% • RH (%) test gradient range: 0% to 90% to 0%.
At the same time, a DVS test was performed on the crystal form C of the compound of formula (I).

[3] = Crystal stability under high humidity conditions, TGA after placement; format: physicochemical; details: 24 hours
Procedure: • Instrument model: TA Q5000/5500 Thermal Gravimetric Analyzer • Test method: Taking a sample (about 1 to 5 mg) and placing in a TGA aluminum dish for testing, and heating the sample from room temperature to 350° C. at a heating rate of 10° C./min under 10 mL/min N2 conditions.
The crystal form C of the compound of formula (I) was placed under different humidity conditions at room temperature and then tested by TGA to preliminarily evaluate its water content changes under different humidity conditions.

M2 receptor, sequence (P08172 whole entry): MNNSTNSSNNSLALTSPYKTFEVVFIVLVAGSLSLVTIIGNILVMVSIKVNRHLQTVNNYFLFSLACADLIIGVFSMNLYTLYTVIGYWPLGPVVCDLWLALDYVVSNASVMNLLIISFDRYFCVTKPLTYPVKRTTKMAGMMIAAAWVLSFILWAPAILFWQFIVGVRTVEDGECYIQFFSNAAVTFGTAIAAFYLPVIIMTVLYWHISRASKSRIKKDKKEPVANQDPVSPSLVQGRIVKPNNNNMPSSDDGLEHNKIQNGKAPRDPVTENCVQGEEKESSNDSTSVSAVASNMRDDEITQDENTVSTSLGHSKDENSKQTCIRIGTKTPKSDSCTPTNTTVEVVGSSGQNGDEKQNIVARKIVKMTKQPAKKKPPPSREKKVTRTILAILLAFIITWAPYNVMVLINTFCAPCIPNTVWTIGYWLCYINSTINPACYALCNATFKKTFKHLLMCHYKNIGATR

## CN(CCCn1nnc2cc(CNC[C@H](O)c3ccc(O)c4[nH]c(=O)ccc34)c3c(c21)CCC3)[C@H]1CC[C@H](OC(=O)C(O)(c2cccs2)c2cccs2)CC1 [listing 1 of 3 here]
M2 receptor
  IC50: 0.062 nM

## CN(CCCn1nnc2cc(CNC[C@H](O)c3ccc(O)c4[nH]c(=O)ccc34)c3c(c21)CCC3)[C@H]1CC[C@H](OC(=O)C(O)(c2cccs2)c2cccs2)CC1 [listing 2 of 3 here]
[1]
  crystal form after placement (XRPD): remained unchanged

## CN(CCCn1nnc2cc(CNC[C@H](O)c3ccc(O)c4[nH]c(=O)ccc34)c3c(c21)CCC3)[C@H]1CC[C@H](OC(=O)C(O)(c2cccs2)c2cccs2)CC1 [listing 3 of 3 here]
[2]; 25° C./80% RH
  moisture adsorption: 7.84%
[2]; XRPD before and after DVS test
  crystal form after the DVS test (XRPD): remained unchanged
[3]; ~81% RH (saturated potassium bromide solution)/room temperature
  TGA weight loss (%, 150° C): 10.4%
[3]; ~94% RH (saturated potassium nitrate solution)/room temperature
  TGA weight loss (%, 150° C): 9.9%
